According to the NIST ThermoML archive (doi:10.1021/je400055v):
± gives the expanded uncertainty stated by the source.

Test: xn = mol fraction of the nth substance listed
Conditions: Liquid, Vibrating tube method

CCCCCCCCCCC [undecane] + CCCCCCC
Conditions	mass density [kg/m3]
333.04 K, 8001 kPa, x2 = 0.5063	694.1 ± 0.3
333.04 K, 9000 kPa, x2 = 0.5063	695 ± 0.3
333.04 K, 10000 kPa, x2 = 0.5063	696 ± 0.3
333.04 K, 11000 kPa, x2 = 0.5063	696.9 ± 0.3
333.04 K, 12000 kPa, x2 = 0.5063	697.8 ± 0.3
333.04 K, 13000 kPa, x2 = 0.5063	698.7 ± 0.4
333.04 K, 14000 kPa, x2 = 0.5063	699.6 ± 0.4
333.04 K, 15000 kPa, x2 = 0.5063	700.5 ± 0.4
333.04 K, 16000 kPa, x2 = 0.5063	701.4 ± 0.4
333.04 K, 17001 kPa, x2 = 0.5063	702.2 ± 0.4
333.04 K, 18000 kPa, x2 = 0.5063	703.1 ± 0.4
333.04 K, 19000 kPa, x2 = 0.5063	703.9 ± 0.4
333.04 K, 20000 kPa, x2 = 0.5063	704.7 ± 0.4
333.04 K, 21001 kPa, x2 = 0.5063	705.6 ± 0.4
333.04 K, 22050 kPa, x2 = 0.5063	706.3 ± 0.4
333.04 K, 23000 kPa, x2 = 0.5063	707.1 ± 0.4
333.04 K, 24000 kPa, x2 = 0.5063	707.9 ± 0.4
333.04 K, 25000 kPa, x2 = 0.5063	708.7 ± 0.4
333.05 K, 1000 kPa, x2 = 0.7482	670.8 ± 0.3
333.05 K, 2000 kPa, x2 = 0.7482	672 ± 0.3
333.05 K, 3000 kPa, x2 = 0.7482	673.1 ± 0.3
333.05 K, 4000 kPa, x2 = 0.7482	674.3 ± 0.3
333.05 K, 5000 kPa, x2 = 0.7482	675.4 ± 0.3
333.05 K, 6000 kPa, x2 = 0.7482	676.4 ± 0.3
333.05 K, 7000 kPa, x2 = 0.7482	677.5 ± 0.3
333.05 K, 8000 kPa, x2 = 0.7482	678.6 ± 0.3
333.05 K, 9000 kPa, x2 = 0.7482	679.6 ± 0.3
333.05 K, 10000 kPa, x2 = 0.7482	680.6 ± 0.3
333.05 K, 11000 kPa, x2 = 0.7482	681.6 ± 0.3
333.05 K, 12000 kPa, x2 = 0.7482	682.6 ± 0.4
333.05 K, 13000 kPa, x2 = 0.7482	683.6 ± 0.4
333.05 K, 14000 kPa, x2 = 0.7482	684.5 ± 0.4
333.05 K, 15000 kPa, x2 = 0.7482	685.4 ± 0.4
333.05 K, 16000 kPa, x2 = 0.7482	686.4 ± 0.4
333.05 K, 17000 kPa, x2 = 0.7482	687.3 ± 0.4
333.05 K, 18000 kPa, x2 = 0.7482	688.2 ± 0.4
333.05 K, 19000 kPa, x2 = 0.7482	689 ± 0.4
333.05 K, 20000 kPa, x2 = 0.7482	689.9 ± 0.4
333.05 K, 21000 kPa, x2 = 0.7482	690.8 ± 0.4
333.05 K, 22000 kPa, x2 = 0.7482	691.6 ± 0.4
333.05 K, 23000 kPa, x2 = 0.7482	692.4 ± 0.4
333.05 K, 24000 kPa, x2 = 0.7482	693.2 ± 0.5
333.05 K, 25000 kPa, x2 = 0.7482	694 ± 0.5
333.09 K, 1001 kPa, x2 = 0.05	709.1 ± 0.3
333.09 K, 1004 kPa, x2 = 0.2346	701.3 ± 0.3
333.09 K, 2001 kPa, x2 = 0.05	710.1 ± 0.3
333.09 K, 2004 kPa, x2 = 0.2346	702.3 ± 0.3
333.09 K, 3000 kPa, x2 = 0.05	711 ± 0.3
333.09 K, 3003 kPa, x2 = 0.2346	703.3 ± 0.3
333.09 K, 4000 kPa, x2 = 0.05	712 ± 0.3
333.09 K, 4003 kPa, x2 = 0.2346	704.2 ± 0.3
333.09 K, 5000 kPa, x2 = 0.05	712.9 ± 0.3
333.09 K, 5003 kPa, x2 = 0.2346	705.2 ± 0.3
333.09 K, 6000 kPa, x2 = 0.05	713.8 ± 0.3
333.09 K, 6003 kPa, x2 = 0.2346	706.1 ± 0.3
333.09 K, 7000 kPa, x2 = 0.05	714.7 ± 0.3
333.09 K, 7003 kPa, x2 = 0.2346	707 ± 0.3
333.09 K, 8001 kPa, x2 = 0.05	715.6 ± 0.3
333.09 K, 8002 kPa, x2 = 0.2346	708 ± 0.3
333.09 K, 9000 kPa, x2 = 0.05	716.5 ± 0.3
333.09 K, 9002 kPa, x2 = 0.2346	708.9 ± 0.3
333.09 K, 10000 kPa, x2 = 0.05	717.3 ± 0.3
333.09 K, 10002 kPa, x2 = 0.2346	709.7 ± 0.3
333.09 K, 11000 kPa, x2 = 0.05	718.2 ± 0.3
333.09 K, 11002 kPa, x2 = 0.2346	710.6 ± 0.3
333.09 K, 12000 kPa, x2 = 0.05	719 ± 0.3
333.09 K, 12002 kPa, x2 = 0.2346	711.5 ± 0.3
333.09 K, 13000 kPa, x2 = 0.05	719.9 ± 0.3
333.09 K, 13001 kPa, x2 = 0.2346	712.3 ± 0.3
333.09 K, 14000 kPa, x2 = 0.05	720.7 ± 0.3
333.09 K, 14001 kPa, x2 = 0.2346	713.2 ± 0.4
333.09 K, 15000 kPa, x2 = 0.05	721.5 ± 0.4
333.09 K, 15002 kPa, x2 = 0.2346	714 ± 0.4
333.09 K, 16000 kPa, x2 = 0.05	722.3 ± 0.4
333.09 K, 16002 kPa, x2 = 0.2346	714.8 ± 0.4
333.09 K, 17000 kPa, x2 = 0.05	723.1 ± 0.4
333.09 K, 17002 kPa, x2 = 0.2346	715.6 ± 0.4
333.09 K, 18000 kPa, x2 = 0.05	723.8 ± 0.4
333.09 K, 18002 kPa, x2 = 0.2346	716.4 ± 0.4
333.09 K, 19000 kPa, x2 = 0.05	724.6 ± 0.4
333.09 K, 19001 kPa, x2 = 0.2346	717.2 ± 0.4
333.09 K, 20000 kPa, x2 = 0.05	725.4 ± 0.4
333.09 K, 20002 kPa, x2 = 0.2346	718 ± 0.4
333.09 K, 21000 kPa, x2 = 0.05	726.1 ± 0.4
333.09 K, 21035 kPa, x2 = 0.2346	718.8 ± 0.4
333.09 K, 22001 kPa, x2 = 0.05	726.8 ± 0.4
333.09 K, 22036 kPa, x2 = 0.2346	719.5 ± 0.4
333.09 K, 23000 kPa, x2 = 0.05	727.6 ± 0.4
333.09 K, 23038 kPa, x2 = 0.2346	720.3 ± 0.4
333.09 K, 24000 kPa, x2 = 0.05	728.3 ± 0.4
333.09 K, 24039 kPa, x2 = 0.2346	721 ± 0.4
333.09 K, 25000 kPa, x2 = 0.05	729 ± 0.4
333.09 K, 25041 kPa, x2 = 0.2346	721.8 ± 0.4
